According to patent US7446177B2, “Uses of DC-SIGN and DC-SIGNR for inhibiting hepatitis C virus infection” (Progenics Pharmaceuticals, Inc., priority 2001, dated 2008):
“Also recorded” adds a separate entry of the source.

Assays:
[1] = target: T1, HCV-E2 binding to DC-SIGN (Homo sapiens, UniProt Q9NNX6); details: HeLa-DC-SIGN cells, 20 beads/cell; mannan 20 ug/ml, antibodies 0.1-10 ug/ml, EDTA or EGTA 5 mM
T1 construct: E2 from Accurate Chemicals, NY Item # 5444; E2 produced in CHO cells
Procedure: (§1) Carboxylate-modified FluoSpheres® NeutrAvidin™ labeled microspheres (505/515 nm, 1.0 um; Molecular Probes, Eugene, Oreg.) were coated with HCV E2 glycoprotein as described for ICAM-1 beads (Geijtenbeek et al, Blood, 94, 754-764 (1999)). Briefly, NeutrAvidin™-coated beads were sonicated, and washed in PBS/BSA (0.5%). Beads were incubated with biotinylated-Sp-conjugated AffiniPure F(ab′)2 goat anti-mouse IgG F(ab′)2 fragment specific (6 ug/ml in PBS/BSA (0.5%); Jackson Immunoresearch Laboratories, Inc., West Grove, Pa.) for 2 hours at 37° C. After washing, beads were incubated with mouse anti-E2 antibodies (6 ug/ml in PBS/BSA (0.5%)) at 4° C. overnight. The beads were washed and incubated with 250 ng/ml purified HCV E2 produced in CHO cells (Accurate Chemicals, NY) overnight at 4° C.
(§2) This was performed as described by Geijtenbeek et al, (Blood, 94, 754-764 (1999)), with modifications. Cells were removed from culture by cell dissociation solution (Sigma) for 5 minutes at 37° C. and washed three times in adhesion buffer (20 mM Tris-HCl [pH 8.0], 150 mM NaCl, 1 mM CaCl2, 2 mM MgCl2, and 0.5% BSA). Cells were resuspended at a final concentration of 5×10^6 cells/ml in adhesion buffer for 30 minutes at 4° C. to recharge Ca2+ levels. Cells ([…]) were preincubated with mannan (20 ug/ml; Sigma), antibodies (0.1-10 ug/ml), EDTA (5 mM) or EGTA (5 mM) for 10 minutes at room temperature. HCV-E2-coated fluorescent beads (20 beads/cell) were added, and the suspension incubated for 30 minutes at 37° C. Adhesion was determined by measuring the percentage of cells that bound fluorescent beads by flow cytometry using a FACSca (Becton Dickinson, Oxnard, Calif.).
(§3) To determine whether DC-SIGN and DC-SIGN-R bind to HCV-E2 glycoproetin, a flow cytometric adhesion assay (Geijtenbeek et al, Blood, 94, 754-764 (1999)) was adapted. HCV-E2 protein produced in CHO cells was captured on fluorescent beads using a panel of anti-E2 mAbs, which were incubated with DC-SIGN- and DC-SIGN-R-HeLa cells at a ratio of 20 beads per cell.

[2] = target: T2, HCV-E2 binding to DC-SIGN-R (Homo sapiens, UniProt Q9H2X3); details: HeLa-DC-SIGN-R cells, 20 beads/cell; mannan 20 ug/ml, antibodies 0.1-10 ug/ml, EDTA or EGTA 5 mM
T2 construct: E2 from Accurate Chemicals, NY Item # 6749; E2 produced in CHO cells
Procedure: as §1, §2, §3

T1 sequence (Q9NNX6 whole entry): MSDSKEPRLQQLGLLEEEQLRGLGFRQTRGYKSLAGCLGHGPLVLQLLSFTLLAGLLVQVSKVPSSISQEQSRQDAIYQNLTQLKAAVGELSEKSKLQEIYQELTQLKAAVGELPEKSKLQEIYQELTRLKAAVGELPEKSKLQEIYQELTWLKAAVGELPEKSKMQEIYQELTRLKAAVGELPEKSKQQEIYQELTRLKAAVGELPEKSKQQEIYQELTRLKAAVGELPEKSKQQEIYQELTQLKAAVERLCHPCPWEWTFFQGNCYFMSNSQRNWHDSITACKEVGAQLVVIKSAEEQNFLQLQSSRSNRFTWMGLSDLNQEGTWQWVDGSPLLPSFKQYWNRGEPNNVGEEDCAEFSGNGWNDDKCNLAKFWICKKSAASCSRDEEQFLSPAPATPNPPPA
T2 sequence (Q9H2X3 whole entry): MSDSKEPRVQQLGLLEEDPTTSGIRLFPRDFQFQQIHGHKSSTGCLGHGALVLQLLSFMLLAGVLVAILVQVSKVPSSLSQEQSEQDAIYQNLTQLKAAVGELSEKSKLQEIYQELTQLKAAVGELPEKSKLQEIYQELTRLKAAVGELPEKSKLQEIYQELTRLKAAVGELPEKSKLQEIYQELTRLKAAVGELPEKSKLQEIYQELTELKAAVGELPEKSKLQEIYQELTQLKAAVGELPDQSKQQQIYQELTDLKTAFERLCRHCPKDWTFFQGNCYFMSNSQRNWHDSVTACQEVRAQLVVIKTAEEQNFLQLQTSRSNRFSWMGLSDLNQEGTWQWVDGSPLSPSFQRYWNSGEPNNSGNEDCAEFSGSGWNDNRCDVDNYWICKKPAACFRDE

| Molecule | Inhibition of adhesion of HCV-E2-coated beads to DC-SIGN [1] | Inhibition of adhesion of HCV-E2-coated beads to DC-SIGN-R [2] |
| --- | --- | --- |
| O=C(O)CN(CCN(CC(=O)O)CC(=O)O)CC(=O)O [EDTA] | efficiently inhibited | efficiently inhibited |
| O=C(O)CN(CCOCCOCCN(CC(=O)O)CC(=O)O)CC(=O)O [EGTA] | efficiently inhibited | efficiently inhibited |
| mannan | inhibit; also recorded: efficiently inhibited; also recorded: blocked | inhibit; also recorded: efficiently inhibited; also recorded: blocked |
